Assay results reported in PMC6389703, “Identification of Biologically Active Ganoderma lucidum Compounds and Synthesis of Improved Derivatives That Confer Anti-cancer Activities in vitro” (Frontiers in Pharmacology, 2019).

Assays:
[1] = system: SUM-149 cells; test: Cell cycle assay (PI, flow cytometry); type: cell-based, human; conditions: 48 h
Description: SUM-149 cells were treated for 48 h with EP, then collected and washed in 1X PBS. The cells (5 × 10^5) were fixed and permeabilized in 70% ethanol at -20°C until further analysis. To measure the DNA content, the cells were washed and resuspended in 150 μL of PBS buffer then incubated in 100 μL of 100 μg/mL RNase A (MilliporeSigma, Burlington, MA, United States) for 15 min at RT, then 250 μL of 50 μg/mL Propidium Iodide (MilliporeSigma) was added. Samples were incubated at RT for 10 min and analyzed on a BD FACS Canto II flow cytometer (BD Biosciences, San José, CA, United States). Data were analyzed by using FlowJo software (V10, FlowJo, LLC, Ashland, OR, United States).

[2] = system: MDA-MB-231 cells; test: De novo in-cell protein synthesis (click assay); type: cell-based, human; conditions: 2 h; EP 20 μM
Description: First, 2.5 × 10^4 cells/well were seeded in 8-well μ-slides (Ibidi®, #80826) and incubated at 37°C for 12 h. The cells were treated with vehicle, compounds Ganoderic acid A or EP, or cycloheximide (positive control) for 2 h to determine protein synthesis as nascent proteins generated using Biovision’s EZClick^TM Global Protein Synthesis Assay Kit, (#K715-100, Milpitas, CA, United States). The assay includes a robust chemical method based on an alkyne containing o-propargyl-puromycin (OP-puro) probe, which stops translation by forming covalent conjugates with nascent polypeptide chains. Truncated polypeptides are rapidly turned over by the proteasome and can be detected based on the subsequent click reaction with a fluorescent azide. The reaction was conducted according to the manufacturer’s protocol. Cells were imaged at 20× with a Nikon C2 scanning confocal microscope, and the whole image montage was quantified by using Gen5 Software and Lionheart^TM FX Automated Microscope (BioTek, Winooski, VT, United States).

With CC(C)[C@@H](C)/C=C/[C@@H](C)[C@H]1CC[C@@H]2[C@]1(C)CC[C@H]1[C@]23C=C[C@]2(C[C@@H](O)CC[C@]12C)OO3 [EP, ergosterol peroxide] the “percentage of cells in G0” value ([1]; 20μM) was 1.7%, the “percentage of cells in G1” value ([1]; 20μM) was 81% and the “percentage of cells in G2/M” value ([1]; 20μM) was 9.8%. For the same molecule, the “percentage of cells in S” value ([1]; 20μM) was 5.4%, the “increase in percentage of cells in G1 phase” value ([1]; vs vehicle) was about 20% and the “reduction of the percentage of cells in G2/M” value ([1]; vs vehicle) was about 10%. For the same molecule, the “de novo protein synthesis inhibition” value [2] was “do not inhibit”.
